We go through 25 molecules from PMC11370232, “Repurposing of a library for high-content screening of inhibitors against Echinococcus granulosus” (Parasites & Vectors, 2024).

pIC50: −log10 of the molar value. ≈ marks a conversion by molar mass, not a printed value. Structures can show the parent of a compound that is named as a salt. Where two headings read alike, the source gives them in different places.

In data set [1] the test system is lab-cultured E. granulosus cysts (> 1 mm). As to the kind of experiment: In vitro cyst viability assay. It counts as cell-based, Echinococcus granulosus. The following applies: for inhibition at 10 µM: Echinococcus granulosus, 72 h, read-out: inhibitory rate against the cysts.
The test system of data set [2] is lab-cultured E. granulosus microcysts (< 1 mm). Nature of the data set: In vitro microcyst viability assay. The following applies: 10 μM, 4 days. It counts as cell-based, Echinococcus granulosus. The procedure:
The in vitro E. granulosus culture progression was divided into two stages: an early stage in which the PSC culture was established by digesting echinococcal cysts isolated from naturally infected sheep livers, followed by a late stage with differentiation into cysts. CSCs were cultured from PSCs according to our previously described method. Briefly, the PSCs were incubated at 37 °C in glass culture vessels in RPMI 1640 medium (Invitrogen, San Diego, CA) containing 20% (v/v) FCS (Invitrogen), 0.45% (w/v) yeast extract, 0.4% (w/v) glucose, 100 IU/mL penicillin, and 100 μg/mL streptomycin placed on a solid-phase base prepared by heating newborn calf serum at 75 °C for 45 min (Smyth, 1990). Approximately 100 PSCs/mL were cultured, and the liquid medium was replaced every 3 days. After 56 days of cultivation, about 10% of the PSCs had developed into cysts with a thin laminated layer. The external diameter of the cysts was 328.6 ± 48 μm, and they appeared to the naked eye as clear capsular cysts. The cysts were carefully aspirated from the culture flasks and separated from dead or undeveloped PSCs by Pasteur pipetting. CSCs included microcysts and cysts: the diameter of the microcysts ranged from 300 μm to 1 mm, and the diameters of the cysts were greater than 1 mm.
CSCs were cultured from PSCs utilizing the method described in a previous section. The in vitro cultured cysts (10 ± 5/well) or microcysts (10 ± 5/well) were seeded in 96-well plates before adding drugs. For the cyst/microcyst viability assay, cysts or microcysts were cultured in one well of a 96-well plate. After 1 day of culture, drugs were added to each well at a final concentration of 10 μM. For the cyst viability assay, the cyst survival rate was determined every 24 h after incubation with drugs, while for the microcyst viability assay, the survival rate of microcysts was determined at 4 days after drug incubation. The following equation was used for the death rate: death rate of CSCs (%) = 100 × (number of dead CSCs/number of total CSCs).

The subject of data set [3] is HepG2. As to the kind of experiment: Cytotoxicity in HepG2. Particulars: read-out: Cytotoxicity in HepG2, CC50; HepG2.
The test system of another data set is N. fowleri. On the set-up: method as in earlier work. The following applies: cited from earlier work.
Data set [4] concerns alpha- and beta-coronaviruses. The following applies: cited from earlier work.
Another data set in a line: in vitro. The following applies: human.
A further data set relates to Chk1. On the set-up: method as in SelleckChem library description. Particulars: ref SelleckChem library description, cited from earlier work.
In a further data set the test system is EGFR. Details: method as in SelleckChem library description. Particulars: ref SelleckChem library description; cited from earlier work.
The subject of a further data set is 20S proteasome. On the set-up: method as in SelleckChem library description. Particulars: ref SelleckChem library description; read-out: IC50, chymotrypsin-like activity of purified 20S proteasome; cited from earlier work.
Another data set deals with ALK. Details: method as in SelleckChem library description. Particulars: ref SelleckChem library description, cited from earlier work.
A further data set in a line: Cytotoxicity in HepG2. The following applies: human.
A further data set relates to p97. On the set-up: method as in SelleckChem library description. Particulars: ref SelleckChem library description; cited from earlier work.
Data set [5] concerns E. multilocularis metacestodes. On the set-up: method as in PMID 32636148. The following applies: screening cascade; cited from earlier work.
In data set [6] the test system is E. multilocularis metacestode burden. Details: method as in PMID 32636148. Particulars: oral treatment, mice infected intraperitoneally with metacestodes or orally with eggs, compared with albendazole; cited from earlier work.
Data set [7] has as its system E. multilocularis and E. granulosus s.s. PSCs, metacestode vesicles, and germinal layer cells. On the set-up: method as in PMID 37540716. The following applies: cited from earlier work.
The subject of data set [8] is E. multilocularis metacestodes. On the set-up: method as in PMID 30396011. Particulars: cited from earlier work.
Data set [9] concerns HepG2.
Data set [10] deals with E. granulosus cysts collected from mice infected with microcysts. As to the kind of experiment: Ex vivo cyst viability assay. The format is cell-based, Echinococcus granulosus. Particulars: for metacestodicidal effect on cysts ex vivo: 1 to 20 μM, 7 days. The procedure:
BALB/c mice were inoculated with cultured microcysts following the methodology outlined in a previous study; 10 weeks post-infection, the mice were euthanized, and cysts were harvested from the peritoneal cavity. The cysts were categorized as size-small cysts, with a diameter less than 5 mm and without PSCs, or large cysts, with a diameter greater than 5 mm and with PSCs. Subsequently, the cysts were incubated in bottles with RPMI 1640 culture medium enriched with 10% FCS and antibiotics.
To determine the effect of omaveloxolone (HY-12212, MCE) and niclosamide (HY-B0497, MCE) on isolated cyst viability ex vivo, cysts collected from the peritoneal cavity of infected mice were incubated with different concentrations of drugs (1, 5, and 20 μM) for 7 days. The mortality rate of the cysts was recorded each day according to the following equation: death rate of cyst/microcyst (%) = [number of dead (cysts and microcysts)/number of total (cysts and microcysts)].

In a further data set the test system is PTEN. On the set-up: method as in SelleckChem library description. The following applies: ref SelleckChem library description; cited from earlier work.
A further data set concerns CE. Details: method as in PMID 15708321, PMID 11776080. Particulars: retrospective study; cited from earlier work.
The test system of another data set is echinococcal cysts. On the set-up: method as in PMID 32279056. The following applies: three-dose intraperitoneal regimen, 57 mg/kg once a day for 3 days; cited from earlier work.
Data set [11] concerns Plasmodium falciparum K1a. Details: method as in SelleckChem library description. The following applies: ref SelleckChem library description; cited from earlier work.
Data set [12] relates to Trypanosoma brucei brucei GUTat 3.1. On the set-up: method as in SelleckChem library description. The following applies: ref SelleckChem library description; cited from earlier work.
The test system of a further data set is MALT1. On the set-up: method as in SelleckChem library description. The following applies: ref SelleckChem library description; cited from earlier work.

Turning to `CC(=O)OC[C@H]1O[C@@H]([S-])[C@H](OC(C)=O)[C@@H](OC(C)=O)[C@@H]1OC(C)=O.CCP(CC)CC.[Au+]` [Auranofin], the “inhibitory rate against the cysts” value in data set [1] (10 μM, day 3 post-treatment) was determined as 100%. Moreover, the “effect on microcyst viability” value in [2] is “did not exert a significant inhibitory effect”. Besides, in the data set on HepG2 [3], the CC50 came to 13.4 µM.
Take `COC(=O)[C@]12CCC(C)(C)C[C@H]1[C@H]1C(=O)C=C3[C@@]4(C)C=C(C#N)C(=O)C(C)(C)[C@@H]4CC[C@@]3(C)[C@]1(C)CC2` [Bardoxolone methyl]: in data set [1] (10 μM, day 3 post-treatment), the inhibition at 10 µM is 100%. The “inhibition of N. fowleri growth” value was “approximately 85%” in the data set on N. fowleri (24 h) and 97% in the data set on N. fowleri (48 h). In addition, in data set [4], the coronavirus inhibition entry is “inhibitors of both alpha- and beta-coronaviruses”. The CC50 in the data set “in vitro” stood at 8.13 µM.
For the molecule `O=c1[nH]c2ccc(Cl)cc2c(N[C@@H]2CN3CCC2CC3)c1-c1nc2ccccc2[nH]1` [CHIR-124], in the data set with Chk1 (cell-free assay), the negative-log IC50 (pIC50) (commonly the negative decadic logarithm of the IC50, by convention in mol/L) is […]. In addition, the “selectivity against Chk2” value in the data set with Chk1 was […].
For `CC#CC(=O)Nc1ccc2ncnc(Nc3cccc(Br)c3)c2c1` [CL-387785 (EKI-785), CL-387785], in the data set on EGFR, the pIC50 was 9.43.
Consider `CC1=C(O)C(=O)C=C2C1=CC=C1[C@@]2(C)CC[C@@]2(C)[C@@H]3C[C@](C)(C(=O)O)CC[C@]3(C)CC[C@]12C` [Celastrol], for which, in the data set on 20S proteasome, the negative-log IC50 (pIC50) is 5.60.
As to `Cc1cc(Nc2ncc(Cl)c(Nc3ccccc3S(=O)(=O)C(C)C)n2)c(OC(C)C)cc1C1CCNCC1` [Ceritinib (LDK378), Ceritinib], the pIC50 in the data set on ALK (cell-free assays) was […]. Besides, in the data set on ALK, the “selectivity against IGF-1R” value is on record as […] and the “selectivity against InsR” value is given as […].
Turning to `COc1ccc2c(c[n+](C)c3c4cc5c(cc4ccc23)OCO5)c1OC` [Chelerythrine], the inhibition at 10 µM in [1] (10 μM, day 3 post-treatment) turned out to be 100%. Also, the “effect on microcyst viability” value in data set [2] is reported as “did not exert a significant inhibitory effect”. The molecule also returned a CC50 in the data set “Cytotoxicity in HepG2” of 32.7 µM.
Regarding `c1ccc(CNc2nc(NCc3ccccc3)c3ccccc3n2)cc1` [DBeQ], the pIC50 in the data set on p97 is 5.82.
Turning to `CCC[C@H](NC(=O)/C(C#N)=C/c1cccc(Br)n1)c1ccccc1` [Degrasyn (WP1130), Degrasyn], the “cyst morphology after treatment” value in data set [1] (day 3 post-drug treatment, positive control) was “structural damage of the cyst”.
For `CCCCc1oc2ccc(NS(C)(=O)=O)cc2c1C(=O)c1ccc(OCCCN(CCCC)CCCC)cc1` [Dronedarone HCl], in data set [1] (10 μM, day 3 post-treatment), the inhibition at 10 µM was determined as 100%. Moreover, the “effect on microcyst viability” value in [2] is “did not exert a significant inhibitory effect”. Moreover, the CC50 in “Cytotoxicity in HepG2” (HepG2 cells) was 15.5 µM.
Turning to `O=C(Nc1cccc(C(F)(F)F)c1)c1cc(Cl)ccc1O` [MMV665807], the “activity against E. multilocularis metacestodes in vitro” value (from here on “activity … in vitro”) in data set [5] is on record as “active”. Also, the “effect on metacestode burden” value in data set [6] is “did not lead to a reduction of the metacestode burden”. Further, the “activity against the parasites of both species in all four assays” value in data set [7] was “active”.
As to `Cc1[nH]c2cc(F)cc(F)c2c(=O)c1-c1ccc(Oc2ccc(OC(F)(F)F)cc2)cc1` [MMV671636, ELQ-400], in data set [8], the “MIC50 against E. multilocularis metacestodes cultured in vitro” value was 0.02 µM (≈ 0.00895 µg/mL).
For `CC(C)(C)[C@H]1CC[C@H](CC2=C(O)C(=O)c3ccccc3C2=O)CC1` [MMV689480, buparvaquone], the “MIC50 against E. multilocularis metacestodes cultured in vitro” value in [8] is 2.87 µM (≈ 0.937 µg/mL).
In the data set with HepG2 [9], `CC(C)(Cc1ccc2ccccc2c1)NC[C@@H](O)COc1cccc(Cl)c1C#N` [NPS-2143] yielded a CC50 of 15.3 µM.
Consider `O=C(Nc1ccc([N+](=O)[O-])cc1Cl)c1cc(Cl)ccc1O` [Niclosamide], for which the inhibition at 10 µM in data set [1] (10 μM, day 3 post-treatment) came to 100%. Also, the “effect on microcyst viability” value in data set [2] was “complete lethality”. Further, in [10], the “day on which all cysts were killed (complete lethality)” value came out at 7 days and the “metacestodicidal effect on cysts ex vivo” value is recorded as “obvious metacestodicidal effect”. The parasiticidal efficiency result in data set [10] (low incubation concentration, from day 5, ex vivo) was “approximately 80%”. For the same molecule, in data set [5], the “activity … in vitro” value is on record as “active”. Moreover, the “effect on metacestode burden” value in [6] is listed as “did not lead to a reduction of the metacestode burden”. Also, the “activity against the parasites of both species in all four assays” value in data set [7] was “active”. The molecule further gave a CC50 in the data set “in vitro” of 6.14 µM.
On to `CC1(C)CC[C@]2(NC(=O)C(C)(F)F)CC[C@]3(C)[C@H](C(=O)C=C4[C@@]5(C)C=C(C#N)C(=O)C(C)(C)[C@@H]5CC[C@]43C)[C@@H]2C1` [Omaveloxolone], for which the inhibition at 10 µM in [1] was found to be 100%. Also, in data set [2], the “effect on microcyst viability” value is “complete lethality”. Further, in [10], the “day on which all cysts were killed (complete lethality)” value was at most 5 days and the “metacestodicidal effect on cysts ex vivo” value was “obvious metacestodicidal effect”. For the same molecule, the “reduction in cyst viability” value in [10] (5 μM, by day 2, ex vivo) was determined as 50%. Besides, the coronavirus inhibition result in [4] was “inhibitors of both alpha- and beta-coronaviruses”. In the data set “Cytotoxicity in HepG2” (HepG2 cells), the CC50 was found to be 9.33 µM.
Molecule `OC1(c2ccc(Cl)c(C(F)(F)F)c2)CCN(CCCC(c2ccc(F)cc2)c2ccc(F)cc2)CC1` [Penfluridol] showed a CC50 in the data set “Cytotoxicity in HepG2” (HepG2 cells) of 8.63 µM.
Regarding `CC(C)(C)C(=O)Nc1ccc2c(c1)C(=O)C(=O)c1ccccc1-2` [SF1670], the pIC50 in the data set with PTEN is 5.70.
In turn, `CC(C)(C)c1ccc(C(O)CCCN2CCC(C(O)(c3ccccc3)c3ccccc3)CC2)cc1` (stereo not shown) [Terfenadine] returned a CC50 in the data set “in vitro” of 7.31 µM.
`CC(=O)Oc1cc(C)c(OC(C)=O)c2ccccc12` [Vitamin K4] displayed a CC50 in the data set “Cytotoxicity in HepG2” (HepG2 cells) above 100 µM.
For the molecule `CCCSc1ccc2nc(NC(=O)OC)[nH]c2c1` [albendazole], the “patients who did not respond favorably to the medication” value in the data set on CE was “about 40%”.
In the case of `OC(c1cc(C(F)(F)F)nc2c(C(F)(F)F)cccc12)C1CCCCN1` (stereo not shown) [mefloquine], the “activity … in vitro” value in data set [5] is “active”.
In the case of `COc1ccc2nc3cc(Cl)ccc3c(Nc3cc(CN4CCCC4)c(O)c(CN4CCCC4)c3)c2n1` [pyronaridine], the cyst mortality with echinococcal cysts is listed as 100%.
With Elaiophylin, the negative logarithm of the IC50 (pIC50) in data set [11] was 6.44; in data set [12], 6.35.
On to MI-2 [MI-2 (MALT1 inhibitor)], for which the pIC50 in the data set with MALT1 was 5.23.
